According to the supplement of paper PMC10307832:

How the values were obtained:
Test in all cases: relative viability (nuclei count vs DMSO), 5 days (fraction); higher = more cells survive
[1] = compound: NCC(=O)Nc1ccc(-n2nc(C(F)(F)F)cc2-c2ccc3c(ccc4ccccc43)c2)cc1 + Nc1nc2[nH]cc(CCc3ccc(C(=O)N[C@@H](CCC(=O)O)C(=O)O)cc3)c2c(=O)[nH]1 [Pemetrexed] (partner 0.2 µM)
Outline: (§1)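 Lung cancer cell lines were seeded in 1536-well plates and dosed by pin tool the next day, with either a single drug or a fixed anchor-drug dose combined with five library-drug doses (not always all listed) spaced in √10 steps. Five days later, one step fixed the cells and stained their nuclei (final 0.05% Triton X-100, 1% formaldehyde, 1 ug/ml Hoechst), and nuclei were counted on 4× images. Relative viability is the nuclei count in treated wells divided by the count in vehicle wells, and each value is the median of duplicate plates.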

[2] = compound: C1CSC2=C(C(=O)N1)SC3=C2C=C(C=C3)O [kb NB 142-70] + C[C@]1(O)C[C@@H](c2nc(-c3ccc4ccc(-c5ccccc5)nc4c3)c3c(N)nccn32)C1 [Linsitinib] (partner 1 µM)
Outline: as §1

kb NB 142-70 + Alpelisib = compound: C1CSC2=C(C(=O)N1)SC3=C2C=C(C=C3)O [kb NB 142-70] + Cc1nc(NC(=O)N2CCC[C@H]2C(N)=O)sc1-c1ccnc(C(C)(C)C(F)(F)F)c1 [Alpelisib] (partner 2 µM)
Outline: as §1

[3] = compound: NCC(=O)Nc1ccc(-n2nc(C(F)(F)F)cc2-c2ccc3c(ccc4ccccc43)c2)cc1 + CS(=O)(=O)N1CCN(Cc2cc3nc(-c4cccc5[nH]ncc45)nc(N4CCOCC4)c3s2)CC1 [Pictilisib] (partner 1 µM)
Outline: as §1

Row | Cell Line | relative viability ([1]; first compound 0.02 µM) | relative viability ([1]; first compound 0.06325 µM) | relative viability ([1]; first compound 0.2 µM) | relative viability ([1]; first compound 0.6325 µM) | relative viability ([1]; first compound 2 µM) | relative viability ([2]; first compound 0.1 µM) | relative viability ([2]; first compound 1 µM) | relative viability ([2]; first compound 3.162 µM) | relative viability (kb NB 142-70 + Alpelisib; first compound 0.1 µM) | relative viability (kb NB 142-70 + Alpelisib; first compound 1 µM) | relative viability (kb NB 142-70 + Alpelisib; first compound 3.162 µM) | relative viability ([3]; first compound 0.02 µM) | relative viability ([3]; first compound 0.06325 µM) | relative viability ([3]; first compound 0.2 µM) | relative viability ([3]; first compound 0.6325 µM) | relative viability ([3]; first compound 2 µM)
1 | NCI-H1648 | 0.625 | 0.636 | 0.647 | 0.706 | 0.687 |  |  |  |  |  |  |  |  |  |  | 
2 | SK-MES-1 | 0.911 | 0.919 | 1.05 | 0.85 | 1.08 | 1.07 | 1.15 | 0.722 | 0.932 | 0.922 | 0.833 | 0.382 | 0.313 | 0.334 | 0.355 | 0.42
3 | HCC-366 | 0.173 | 0.149 | 0.183 | 0.162 | 0.282 | 0.658 | 0.462 | 0.214 | 0.425 | 0.333 | 0.296 | 0.147 | 0.205 | 0.174 | 0.172 | 0.141
4 | 201T | 0.321 | 0.32 | 0.326 | 0.301 | 0.311 | 1.04 | 1.05 | 1.02 | 1.01 | 1.02 | 1 | 0.664 | 0.655 | 0.68 | 0.734 | 0.687
5 | HCC-827 | 0.217 | 0.211 | 0.277 | 0.251 | 0.254 | 0.921 | 0.992 | 0.902 | 0.868 | 0.928 | 0.851 | 1.01 | 1.15 | 1.05 | 0.79 | 0.896
6 | NCI-H647 | 0.172 | 0.182 | 0.205 | 0.203 | 0.202 | 1.1 | 1.2 | 1.17 | 1.1 | 1.43 | 0.698 |  | 0.479 | 0.548 | 0.406 | 0.496
7 | NCI-H2023 | 0.226 | 0.249 | 0.256 | 0.224 | 0.239 | 0.698 | 0.673 | 0.396 | 0.619 | 0.602 | 0.531 | 0.229 | 0.232 | 0.201 | 0.207 | 0.242
8 | NCI-H520 | 0.676 | 0.716 | 0.761 | 0.661 | 0.623 | 0.874 | 0.972 | 0.641 | 0.728 | 0.961 | 0.513 | 0.351 | 0.265 | 0.323 | 0.277 | 0.277
9 | RERF-LC-KJ | 0.493 | 0.402 | 0.462 | 0.447 | 0.466 | 0.918 | 0.957 | 0.923 | 0.778 | 0.827 | 0.706 | 0.568 | 0.62 | 0.663 | 0.66 | 0.517
10 | A-427 | 1 | 0.975 | 1.02 | 0.974 | 0.957 | 1.04 | 1.12 | 1.01 | 1.01 | 1.23 | 1.11 | 0.595 | 0.726 | 0.744 | 0.739 | 0.815
11 | NCI-H441 | 0.253 | 0.279 | 0.273 | 0.259 | 0.243 | 0.656 | 0.457 | 0.356 | 0.92 | 0.62 | 0.484 | 0.469 | 0.441 | 0.469 | 0.366 | 0.575
12 | NCI-H1703 |  |  |  |  |  | 0.975 | 0.625 | 0.823 | 0.391 | 0.362 | 0.444 | 0.218 | 0.244 | 0.278 | 0.255 | 0.262
13 | NCI-H1792 | 0.943 | 1.07 | 0.802 | 0.943 | 0.872 | 0.598 | 0.616 | 0.688 | 0.778 | 0.732 | 0.891 | 0.244 | 0.319 | 0.277 | 0.315 | 0.344
14 | Calu-6 |  |  |  |  |  | 0.93 | 0.889 | 0.683 | 0.984 | 0.867 | 0.478 | 0.849 | 0.891 | 0.975 | 0.949 | 0.93
15 | SK-LU-1 | 0.992 | 0.956 | 1.11 | 0.902 | 0.989 | 1.26 | 0.986 | 0.557 | 0.961 | 0.873 | 0.307 | 0.651 | 0.604 | 0.581 | 0.479 | 0.623
16 | PC-3 [JPC-3] | 1.2 | 1.24 | 1.08 | 1.2 | 1.18 | 0.971 | 0.98 | 0.881 | 1.06 | 1.04 | 0.968 | 0.645 | 0.855 | 0.739 | 0.745 | 0.88
17 | EMC-BAC-2 | 0.403 | 0.457 | 0.465 | 0.421 | 0.408 | 0.805 | 0.798 | 0.747 | 0.74 | 0.754 | 0.572 | 0.509 | 0.558 | 0.558 | 0.545 | 0.506
18 | LK-2 | 0.295 | 0.207 | 0.294 | 0.256 | 0.217 | 0.751 | 0.384 | 0.245 | 1.1 | 0.72 | 0.438 | 0.536 | 0.669 | 0.462 | 0.577 | 0.616
19 | NCI-H2126 | 0.667 | 0.714 | 0.736 | 0.724 | 0.69 | 0.702 | 0.729 | 0.681 | 0.748 | 0.763 | 0.758 | 0.47 | 0.51 | 0.45 | 0.532 | 0.502
20 | NCI-H3122 | 0.194 | 0.208 | 0.204 | 0.187 | 0.241 | 1.03 | 1.01 | 0.924 | 0.828 | 0.7 | 0.442 | 0.696 | 0.592 | 0.532 | 0.571 | 0.628
21 | NCI-H1975 | 0.309 | 0.293 | 0.291 | 0.282 | 0.278 | 0.946 | 1.11 | 0.519 | 0.665 | 0.604 | 0.344 | 0.273 | 0.307 | 0.292 | 0.335 | 0.307
